This note sets out measurements from patent US6165982A, “Use of sericin as antioxidants and tyrosinase inhibitors” (Seiren Co., Ltd., priority 1996, dated 2000).

This test concerns rat brain homogenate. Put plainly: Inhibitory test of lipid peroxide in rat brain homogenate (TBARS, TBA method). As to conditions: for Inhibitory rate on an increase in lipid peroxide: 37° C., 2 hours, TBARS. The format is biochemical. How it is done: To 1 g of the rat brain stored under refrigeration was added 9 ml of 0.075M phosphate buffer (pH 7.5) and the mixture was homogenated under ice-cooling (hereinafter referred to as homogenate). To 0.5 ml of the homogenate obtained above was added 3.5 ml each of 0.075M phosphate buffers containing Sericin L and Sericin H (pH 7.5), respectively. Incubation was continued at 37° C. for 2 hours. At the end of this time, the respective final concentrations of sericin were made to 0.02~0.5%. Immediately before the isolation and after the incubation for 2 hours, 0.5 ml each of the samples was recovered and then TBARS (thiobarbituric acid reactive substance), an indicator of lipid peroxide level, was determined according to the TBA (thiobarbituric acid) method. Antioxidizing ability of sericin was calculated from the TBARS amount obtained when no sericin was added and the TBARS amount obtained when sericin was added according to the following equation 1 and expressed in terms of an inhibitory rate on an increase in lipid peroxide by incubation. In all cases of this Test Example and the following Test Examples 2~5, tests were repeated three times and the results were shown with an average value of the numerical values thus obtained. Inhibitory rate (%)=(1-A/B)×100 Equation 1 A: Increased TBARS amount obtained when a lipid peroxide inhibitory agent (an antioxidant) was added B: Increased TBARS amount obtained when no lipid peroxide inhibitory agent (an antioxidant) was added To 0.5 ml of a sample were added 2.5 ml of a 8% trichloroacetic acid solution and 2.0 ml of a 0.67% thiobarbituric acid solution and the resulting mixture was thoroughly mixed and then heated in a boiling water bath for 15 minutes. Thereafter, the mixture was centrifuged at 2000× g for 10 minutes and the supernatant was measured for absorbance at 535 nm to determine a TBARS amount. 1,1,3,3-Tetraethoxypropane was used as a standard. To 0.5 ml of the homogenate obtained above was added 3.5 ml each of 0.075M phosphate buffers (pH 7.5) containing Sericin L, ascorbic acid (vitamin C) and bovine serum albumin, respectively. Incubation was continued at 37° C. for 2 hours. The final concentrations of Sericin L, ascorbic acid and albumin were made to 0.01%~1.0%. After incubation, a TBARS amount was determined according to the TBA method, similarly to Test Example 1 and inhibitory rates on an increase in lipid peroxide were determined, respectively.

In the case of `O=C1O[C@H]([C@@H](O)CO)C(O)=C1O` [Ascorbic acid, ascorbic acid], the “Inhibitory rate on an increase in lipid peroxide” value runs as follows: (final concentration 0.01%) -39%; (final concentration 0.05%) 39%; (final concentration 0.1%) 87%; (final concentration 0.5%) 97%; (final concentration 1.0%) 96%. In addition, the “Effect on oxidation at low concentration (in words)” value (low concentration range of 0.01%) is “oxidation may be accelerated”.
